Laboratory results: ChEMBL document CHEMBL4840311, “Discovery of novel nitrogenous heterocyclic-containing quinoxaline-1,4-di-N-oxides as potent activator of autophagy in M.tb-infected macrophages” (Eur J Med Chem, 2021)
Values after ≈ are worked out from the molar mass of the structure shown. Active and inactive are the calls of the source. The rule behind the calls is not given here.

Key:
Vero = assay: Cytotoxicity against African green monkey Vero cells assessed as reduction in cell viability measured after 72 hrs by MTT assay; type: cell-based; conditions: Chlorocebus sabaeus
[1] = test system: Mycobacterium tuberculosis; assay: Antimycobacterial activity against Mycobacterium tuberculosis H37Rv ATCC 27294 assessed as inhibition of bacterial growth measured after 5 days by microplate alamar blue assay; type: functional; conditions: H37Rv ATCC 27294, 120 h, time 5 day
[2] = Selectivity index, ratio of IC50 for African green monkey Vero cells measured after 72 hrs by MTT assay to MIC for antimycobacterial activity against Mycobacterium tuberculosis H37Rv ATCC 27294 assessed as inhibition of bacterial growth measured after 5 days by microplate alamar blue assay; type: toxicity; conditions: read-out: Selectivity Index
J774.A1 [3] = assay: Cytotoxicity against mouse J774.A1 cells assessed as reduction in cell viability measured after 72 hrs by MTT assay; type: cell-based; conditions: J774.A1, 72 h
[4] = AUC (0 to infinity) in Wistar rat at 2.5 mg/kg, im by HPLC method; type: ADME, organism-based; parameters: time infinity, route intramuscular, dose 2.5 mg/kg; conditions: in vivo
J774.A1 [5] = assay: Activation of autophagy in mouse J774.A1 cells infected with Mycobacterium tuberculosis H37Rv assessed as increase of LC3-II expression by measuring ratio of LC3-II to LC3-I at 2.5 ug/ml measured after 24 hrs by Western blot assay (reference value: 1.18); type: functional; conditions: dose 2.5 µg/ml
J774.A1 [6] = assay: Activation of autophagy in mouse J774.A1 cells infected with Mycobacterium tuberculosis H37Rv assessed as increase of LC3-II expression by measuring ratio of LC3-II to LC3-I at 1 ug/ml measured after 24 hrs by Western blot assay (reference value: 1.18); type: functional; conditions: dose 1 µg/ml
J774.A1 [7] = assay: Induction of cytoplasmic ROS generation in mouse J774.A1 cells at 2.5 ug/ml measured after 24 hrs by DCFH-DA staining based flow cytometry assay; type: functional, cell-based; conditions: dose 2.5 µg/ml
[8] = Tmax in Wistar rat at 2.5 mg/kg, im measured for 48 hrs by HPLC method; type: ADME, organism-based; conditions: in vivo
[9] = test system: Mycobacterium tuberculosis; assay: Antimycobacterial activity against Mycobacterium tuberculosis H37Rv infected in mouse J774.A1 cells assessed as log reduction of bacterial growth at 10X MIC measured after 4 days by visual colony counting analysis; type: functional; conditions: time 4 day
[10] = test system: Mycobacterium tuberculosis; assay: Antimycobacterial activity against Mycobacterium tuberculosis H37Rv infected in mouse J774.A1 cells assessed as log reduction of bacterial growth at 40X MIC measured after 4 days by visual colony counting analysis; type: functional; conditions: time 4 day
[11] = Cmax in Wistar rat at 2.5 mg/kg, im measured for 48 hrs by HPLC method; type: ADME, organism-based; parameters: route intramuscular, dose 2.5 mg/kg, time 48 hrs; conditions: in vivo
[12] = Half life in Wistar rat at 2.5 mg/kg, im measured for 48 hrs by HPLC method; type: ADME, organism-based; conditions: in vivo
[13] = test system: Mycobacterium tuberculosis; assay: Antimycobacterial activity against Mycobacterium tuberculosis H37Rv infected in mouse J774.A1 cells assessed as log reduction of bacterial growth at 1X MIC measured after 4 days by visual colony counting analysis; type: functional; conditions: time 4 day
[14] = test system: Mycobacterium tuberculosis; assay: Antimycobacterial activity against Mycobacterium tuberculosis H37Rv infected in mouse J774.A1 cells assessed as log reduction of bacterial growth at 20X MIC measured after 4 days by visual colony counting analysis; type: functional; conditions: time 4 day
Cell membrane [15] = assay: Disruption of membrane integrity Mycobacterium tuberculosis H37Rv assessed as disturbance in energy homeostasis by measuring reduction in ATP content at 0.125 to 2.5 ug/ml measured after 24 hrs by luciferase based bioluminescence assay; conditions: dose 0.125-2.5 µg/ml
[16] = AUC (0 to t) in Wistar rat at 2.5 mg/kg, im measured for 48 hrs by HPLC method; type: ADME, organism-based; parameters: dose 2.5 mg/kg, time 48 hrs; conditions: in vivo
Cell membrane [17] = assay: Disruption on membrane integrity in Mycobacterium tuberculosis assessed as red fluorescence at 2X to 4X MIC measured after 24 hrs by SYTO 9/PI staining based inverted flourescence microscopy method
[18] = test system: Mycobacterium tuberculosis; assay: Antimycobacterial activity against Mycobacterium tuberculosis H37Rv infected in mouse J774.A1 cells assessed as log reduction of bacterial growth at 1X to 40X MIC measured after 1 day by visual colony counting analysis; type: functional
J774.A1 [19] = assay: Activation of autophagy in mouse J774.A1 cells assessed as LC3 accumulation measured after 24 hrs by immunofluorescence staining analysis; type: functional, cell-based
J774.A1 [20] = assay: Induction of mitochondrial ROS generation in mouse J774.A1 cells infected with Mycobacterium tuberculosis H37Rv at 2.5 ug/ml measured after 24 hrs by Mito-SOX staining based flow cytometry assay; type: functional, cell-based; conditions: dose 2.5 µg/ml
J774.A1 [21] = assay: Activation of autophagy in mouse J774.A1 cells infected with Mycobacterium tuberculosis H37Rv assessed as increase of LC3-II expression by measuring ratio of LC3-II to LC3-I at 5 ug/ml measured after 24 hrs by Western blot assay (reference value: 1.18); type: functional; conditions: dose 5 µg/ml
[22] = MRT (0 to t) in Wistar rat at 2.5 mg/kg, im measured for 48 hrs by HPLC method; type: ADME, organism-based; conditions: in vivo
J774.A1 [23] = assay: Induction of mitochondrial ROS generation in mouse J774.A1 cells at 2.5 ug/ml measured after 24 hrs by DCFH-DA staining based flow cytometry assay; type: functional, cell-based; conditions: dose 2.5 µg/ml
[24] = Toxicity in Wistar rat assessed as abnormal behaviour at 2.5 mg/kg, im measured for 48 hrs; type: organism-based; conditions: in vivo
[25] = MRT (0 to infinity) in Wistar rat at 2.5 mg/kg, im by HPLC method; type: ADME, organism-based; conditions: in vivo
J774.A1 [26] = assay: Induction of cytoplasmic ROS generation in mouse J774.A1 cells infected with Mycobacterium tuberculosis H37Rv at 2.5 ug/ml measured after 24 hrs by DCFH-DA staining based flow cytometry assay; type: functional, cell-based; conditions: dose 2.5 µg/ml
J774.A1 [27] = assay: Activation of autophagy in mouse J774.A1 cells assessed as LC3-II expression by measuring ratio of LC3-II to LC3-I measured after 24 hrs by Western blot assay (reference value: 1.04); type: functional
J774.A1 [28] = assay: Activation of autophagy in mouse J774.A1 cells infected with Mycobacterium tuberculosis H37Rv assessed as increase in LC3 accumulation at 2.5 to 5 ug/ml measured after 24 hrs by immunofluorescence staining analysis; type: functional, cell-based; conditions: dose 2.5-5 µg/ml
[29] = test system: Mycobacterium tuberculosis; assay: Antimycobacterial activity against Mycobacterium tuberculosis H37Rv infected in mouse J774.A1 cells assessed as log reduction of bacterial growth at 1X to 40X MIC measured after 4 days by visual colony counting analysis; type: functional; conditions: time 4 day
[30] = test system: Mycobacterium tuberculosis; assay: Antimycobacterial activity against Mycobacterium tuberculosis H37Rv infected in mouse J774.A1 cells assessed as log reduction of bacterial growth at 10X MIC measured after 1 days by visual colony counting analysis; type: functional; conditions: time 1 day
[31] = test system: Mycobacterium tuberculosis; assay: Antimycobacterial activity against Mycobacterium tuberculosis H37Rv infected in mouse J774.A1 cells assessed as log reduction of bacterial growth at 1X MIC measured after 1 days by visual colony counting analysis; type: functional; conditions: time 1 day

Compound: CC(=O)c1c(C(F)(F)F)[n+]([O-])c2cc(-n3ccnc3)c(F)cc2[n+]1[O-]
- IC50 (Vero): 46.5 µM
- MIC [1]: 0.25 µg/mL (≈ 0.702 µM)
- selectivity ratio at 72 hrs [2]: 66.2

Compound: CC(=O)c1c(C)[n+]([O-])c2cc(F)c(F)cc2[n+]1[O-]
- IC50 (Vero): 22.4 µM
- MIC [1]: 2 µg/mL (≈ 7.87 µM)
- selectivity ratio at 72 hrs [2]: 2.8

Compound: CC(=O)c1c(C)[n+]([O-])c2cc(-n3ccnc3)c(F)cc2[n+]1[O-]
- IC50 (J774.A1 [3]): 77.7 µM
- IC50 (Vero): 95.7 µM
- MIC [1]: 0.5 µg/mL (≈ 1.65 µM)
- selectivity ratio at 72 hrs [2]: 46.4

Compound: Cc1c(C(=O)OCc2ccccc2)[n+]([O-])c2cc(F)c(F)cc2[n+]1[O-]
- IC50 (Vero): 55.3 µM
- MIC [1]: 0.5 µg/mL (≈ 1.44 µM)
- selectivity ratio at 72 hrs [2]: 38.3

Compound: Cc1c(C(=O)OC(C)C)[n+]([O-])c2cc(F)c(-n3ccnc3)cc2[n+]1[O-]
- IC50 (J774.A1 [3]): 77.7 µM
- IC50 (Vero): 112 µM
- MIC [1]: 2 µg/mL (≈ 5.78 µM)
- selectivity ratio at 72 hrs [2]: 19.5

Compound: CCOC(=O)c1c(C(F)(F)F)[n+]([O-])c2cc(-n3cncn3)c(F)cc2[n+]1[O-]
- IC50 (Vero): 35.4 µM
- MIC [1]: 0.25 µg/mL (≈ 0.646 µM)
- selectivity ratio at 72 hrs [2]: 54.8

Compound: CCOC(=O)c1c(C)[n+]([O-])c2cc(F)c(F)cc2[n+]1[O-]
- IC50 (Vero): 30.6 µM
- MIC [1]: 1 µg/mL (≈ 3.52 µM)
- selectivity ratio at 72 hrs [2]: 8.7

Compound: CCOC(=O)c1c(C)[n+]([O-])c2cc(N3CCN(C)CC3)c(F)cc2[n+]1[O-]
- MIC [1]: 8 µg/mL (≈ 22 µM)

Compound: Cc1c(C(=O)CC(C)C)[n+]([O-])c2ccccc2[n+]1[O-]
- MIC [1]: 64 µg/mL (≈ 246 µM)

Compound: CCCC(=O)c1c(C)[n+]([O-])c2cc(F)c(F)cc2[n+]1[O-]
- MIC [1]: 8 µg/mL (≈ 28.3 µM)

Compound: Cc1c(C(=O)OCc2ccccc2)[n+]([O-])c2cc(F)c(-n3cncn3)cc2[n+]1[O-]
- AUC(0-inf) [4]: 10600 ng·h/mL
- Ratio (J774.A1 [5]): 1.92
- Ratio (J774.A1 [6]): 1.74
- Activity (J774.A1 [7]): inactive
- IC50 (J774.A1 [3]): 77.7 µM
- Tmax [8]: 2 h
- log(activity) [9]: 1.56
- log(activity) [10]: 2.73
- Cmax [11]: 1560 ng/mL
- IC50 (Vero): 123 µM
- half-life [12]: 5.94 h
- log(activity) [13]: 0.74
- log(activity) [14]: 2.12
- Activity (Cell membrane [15]): Active
- AUC(0-t) at 48 h [16]: 10100 ng·h/mL
- Activity (Cell membrane [17]): Active
- log(activity) [18]: 0.1
- Activity (J774.A1 [19]): inactive
- Activity (J774.A1 [20]): Active
- Ratio (J774.A1 [21]): 2.59
- MRT last at 48 h [22]: 6.04 h
- Activity (J774.A1 [23]): inactive
- Activity [24]: Non-Toxic
- MIC [1]: 0.125 µg/mL (≈ 0.316 µM)
- MRT inf [25]: 7.38 h
- selectivity ratio at 72 hrs [2]: 328
- Activity (J774.A1 [26]): Active
- Ratio (J774.A1 [27]): 0.78
- Activity (J774.A1 [28]): Active

Compound: CCOC(=O)c1c(C(F)(F)F)[n+]([O-])c2cc(N3CCNCC3)c(F)cc2[n+]1[O-]
- IC50 (Vero): 31.3 µM
- MIC [1]: 0.5 µg/mL (≈ 1.24 µM)
- selectivity ratio at 72 hrs [2]: 25.3

Compound: CCOC(=O)c1c(C)[n+]([O-])c2cc(N3CCNCC3)c(F)cc2[n+]1[O-]
- MIC [1]: 4 µg/mL (≈ 11.4 µM)

Compound: CCOC(=O)c1c(C)[n+]([O-])c2cc(N3CCCCC3)c(F)cc2[n+]1[O-]
- MIC [1]: 32 µg/mL (≈ 91.6 µM)

Compound: Cc1c(C(=O)OCc2ccccc2)[n+]([O-])c2cc(F)c(-n3ccnc3)cc2[n+]1[O-]
- IC50 (J774.A1 [3]): 77.7 µM
- IC50 (Vero): 107 µM
- log(activity) [29]: 2.15
- log(activity) [30]: 0.18
- MIC [1]: 0.25 µg/mL (≈ 0.634 µM)
- log(activity) [31]: 0.04
- selectivity ratio at 72 hrs [2]: 169
